Data: paper PMC7478952 (Pharmaceutical Research, 2020)
pKd: −log10 of the molar value.

Assays:
[1] = system: human DAAO; parameters: method as in PMID 28780732; details: cited from earlier work
[2] = system: mouse DAAO; parameters: method as in PMID 28780732; details: cited from earlier work
[3] = Plasma PK of TAK-831 after single oral administration in mice (target occupancy study, 1-compartment model); assay type: in vivo, C57BL/6 J mice
Experimental: (§1) PGM019260 was formulated in 5% dimethyl sulfoxide and 95% v/v of 20% w/v 2-hydroxypropyl-β-cyclodextrin. […] After 2, 4, 6, 8, 10 and 24 h from oral administration, PGM019260 at 60 μg/kg was administered by intravenous route (i.v.) with a dose volume of 1 mL/kg (n = 4). Mice were sacrificed 20 min after tracer dosing. Blood was collected into heparin containing tubes and plasma was separated.
(§2) The grand mean value of tracer concentration in vehicle treatment group calculated from all the time points (2, 4, 6, 8, 10 and 24 h after vehicle treatment) was used as the baseline of tracer concentration across all the time points. […] The differential equations of PK/TO/PD model are shown below (Eqs. 1, 2 and 5). […] 4 and 6, respectively.1 dAp/dt=−CLp/Vp·Ap 2 dTO/dt=Kon·BRmax−TO·Cp−Koff·TO 3 Tracer concentration=BLtr·1−TO 4 In vivoKd=Koff/Kon×fp 5 dPD/dt=Kin−Kout·BRmax−Imax·TO 6 Kin=BL·Kout
(§3) The convergence criterion was three significant digits.

[4] = molecular target: T1, D-amino acid oxidase (DAAO) (Mus musculus, UniProt P18894); assay: Cerebellum target occupancy of DAAO measured by displacement of tracer PGM019260 (mechanistic binding kinetics model); assay type: in vivo, C57BL/6 J mice
T1 construct: from tissue
Experimental: as §1, §2, §3

[5] = in vivo; details: mouse
Experimental: Mice were sacrificed (n = 2) 0.25, 0.5, 1, 2, 4, 8 and 24 h after p.o. dosing. Blood was collected with heparinized syringe and plasma was separated. Three separate brain regions (cerebellum, front and back part of cerebrum) were isolated. The radioactivity in plasma and brain regions was measured by liquid scintillation counter. […] Plasma and whole brain homogenate samples were processed for metabolite profiling by HPLC with on-line radioisotope detector or liquid scintillation counter.

[6] = Free fraction of TAK-831 in mouse plasma; assay type: in vitro ADME; details: read-out: fp free fraction in mouse plasma
[7] = Free fraction of TAK-831 in human plasma; assay type: in vitro ADME; details: read-out: fp,human free fraction in plasma
[8] = molecular target: DAAO (Homo sapiens, UniProt P14920); assay: Inhibition of DAAO activity in vitro; assay type: biochemical
[9] = molecular target: P-glycoprotein (P-gp) (Homo sapiens, UniProt P08183); assay: P-glycoprotein substrate assessment; assay type: in vitro ADME
[10] = molecular target: T2, breast cancer resistance protein (BCRP) (Homo sapiens, UniProt Q9UNQ0); assay: BCRP substrate assessment; assay type: in vitro ADME
T2 sequence (Q9UNQ0 1-655): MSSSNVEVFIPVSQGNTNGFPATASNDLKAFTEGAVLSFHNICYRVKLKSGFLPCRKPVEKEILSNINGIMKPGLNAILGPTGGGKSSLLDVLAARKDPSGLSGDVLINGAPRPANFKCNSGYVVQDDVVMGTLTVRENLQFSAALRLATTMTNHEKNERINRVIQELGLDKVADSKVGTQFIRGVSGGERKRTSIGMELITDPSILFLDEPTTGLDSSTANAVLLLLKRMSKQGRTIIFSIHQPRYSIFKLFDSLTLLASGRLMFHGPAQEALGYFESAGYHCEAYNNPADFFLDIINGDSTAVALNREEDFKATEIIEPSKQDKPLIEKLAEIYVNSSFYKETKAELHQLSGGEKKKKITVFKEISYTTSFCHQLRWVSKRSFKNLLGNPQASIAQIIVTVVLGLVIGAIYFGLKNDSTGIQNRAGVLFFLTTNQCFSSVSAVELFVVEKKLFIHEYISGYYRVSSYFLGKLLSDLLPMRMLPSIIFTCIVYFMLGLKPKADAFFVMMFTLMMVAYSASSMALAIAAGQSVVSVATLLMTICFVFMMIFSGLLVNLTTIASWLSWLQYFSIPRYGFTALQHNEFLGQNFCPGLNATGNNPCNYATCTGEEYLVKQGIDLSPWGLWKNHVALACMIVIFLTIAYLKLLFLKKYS

[11] = Translated human PK model (single species allometric scaling from rats)
Experimental: (§4) The translational modeling steps from the mouse PK/TO/PD model to that for humans are as follows; 1) PK model was replaced by the human PK model predicted from rats with single species allometric scaling approach(6). […] The differential equations of translated human PK/TO/PD model are shown in Eq. S12-S14, 2 and 5. […] The model parameters used for simulation are summarized in Supplementary table 2.
(§5) C1 is calculated by A1/V1. […] Imax represents maximum inhibitory effect of TO on Kout.

[12] = system: DAAO; details: human, taken from the mouse model
Experimental: as §4, §5

[13] = system: D-serine in cerebellum; assay: Translated human PD model (D-serine in cerebellum); details: taken from the mouse model
Experimental: as §4, §5

[14] = system: D-serine in cerebellum; details: cited from earlier work
[15] = system: novel object recognition; details: cited from earlier work
[16] = system: cerebellar-based associative learning; details: mice; cited from earlier work
[17] = system: social interaction (model of negative symptoms); details: Balb/c mice; cited from earlier work
[18] = system: DAAO; parameters: method as in PMID 28780732; details: pre-treatment; cited from earlier work

T1 sequence (P18894 whole entry): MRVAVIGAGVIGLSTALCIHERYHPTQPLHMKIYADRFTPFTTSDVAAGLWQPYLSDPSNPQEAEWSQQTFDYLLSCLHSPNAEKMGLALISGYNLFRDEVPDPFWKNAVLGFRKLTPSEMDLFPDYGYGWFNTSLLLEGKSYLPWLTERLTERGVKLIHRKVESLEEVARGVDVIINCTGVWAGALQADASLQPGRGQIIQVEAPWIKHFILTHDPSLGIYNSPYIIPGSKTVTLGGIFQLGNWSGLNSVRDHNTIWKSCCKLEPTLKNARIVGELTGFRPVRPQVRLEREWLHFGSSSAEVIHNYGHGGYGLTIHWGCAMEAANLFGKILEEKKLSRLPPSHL
Chain of DAAO (Homo sapiens, UniProt P14920) (P14920 whole entry, species assumed): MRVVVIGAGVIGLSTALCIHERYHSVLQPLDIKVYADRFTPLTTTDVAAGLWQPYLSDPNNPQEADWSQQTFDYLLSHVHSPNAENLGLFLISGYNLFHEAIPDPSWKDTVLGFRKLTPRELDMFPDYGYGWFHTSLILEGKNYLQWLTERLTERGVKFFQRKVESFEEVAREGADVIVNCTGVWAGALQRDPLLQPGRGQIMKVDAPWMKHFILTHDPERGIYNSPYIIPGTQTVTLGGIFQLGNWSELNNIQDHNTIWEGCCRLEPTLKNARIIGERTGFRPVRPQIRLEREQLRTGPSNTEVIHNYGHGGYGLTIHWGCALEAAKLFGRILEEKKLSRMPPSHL
Chain of P-glycoprotein (P-gp) (P08183 whole entry): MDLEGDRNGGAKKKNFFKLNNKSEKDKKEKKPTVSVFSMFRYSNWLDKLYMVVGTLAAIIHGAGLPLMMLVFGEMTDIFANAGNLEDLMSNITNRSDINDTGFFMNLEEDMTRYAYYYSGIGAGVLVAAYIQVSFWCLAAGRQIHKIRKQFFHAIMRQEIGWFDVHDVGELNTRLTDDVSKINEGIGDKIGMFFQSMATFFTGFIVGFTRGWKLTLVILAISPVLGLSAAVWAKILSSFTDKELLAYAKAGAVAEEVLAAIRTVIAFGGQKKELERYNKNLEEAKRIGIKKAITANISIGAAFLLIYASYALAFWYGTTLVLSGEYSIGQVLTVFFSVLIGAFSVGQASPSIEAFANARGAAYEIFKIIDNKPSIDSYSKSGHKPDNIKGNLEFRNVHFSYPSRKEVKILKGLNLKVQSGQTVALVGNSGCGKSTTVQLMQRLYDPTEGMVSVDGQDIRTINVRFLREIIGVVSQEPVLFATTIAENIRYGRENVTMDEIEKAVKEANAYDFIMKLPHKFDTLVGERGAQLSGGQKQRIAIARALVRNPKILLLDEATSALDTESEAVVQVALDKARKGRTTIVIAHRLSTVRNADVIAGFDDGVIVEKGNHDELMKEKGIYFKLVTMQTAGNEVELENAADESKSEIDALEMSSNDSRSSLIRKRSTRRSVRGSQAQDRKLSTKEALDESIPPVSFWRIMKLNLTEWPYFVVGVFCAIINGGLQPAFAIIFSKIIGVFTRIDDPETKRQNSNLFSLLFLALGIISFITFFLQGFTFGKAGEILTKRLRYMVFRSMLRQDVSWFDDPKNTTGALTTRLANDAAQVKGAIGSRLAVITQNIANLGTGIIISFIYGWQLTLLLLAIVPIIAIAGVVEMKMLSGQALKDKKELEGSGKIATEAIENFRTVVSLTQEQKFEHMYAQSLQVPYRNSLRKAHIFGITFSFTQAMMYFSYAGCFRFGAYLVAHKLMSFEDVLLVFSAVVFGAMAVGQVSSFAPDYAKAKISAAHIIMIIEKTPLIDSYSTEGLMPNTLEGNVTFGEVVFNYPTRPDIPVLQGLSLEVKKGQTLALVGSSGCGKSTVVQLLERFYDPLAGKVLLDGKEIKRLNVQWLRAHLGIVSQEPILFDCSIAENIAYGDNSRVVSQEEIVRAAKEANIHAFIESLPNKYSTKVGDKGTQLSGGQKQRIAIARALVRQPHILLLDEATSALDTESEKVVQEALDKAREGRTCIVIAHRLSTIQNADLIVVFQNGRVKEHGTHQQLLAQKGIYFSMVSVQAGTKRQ

**Q.** With COc1ccc(CSc2c[nH]c(=O)c(O)c2)cn1 [PGM019260] as the compound, how does the “DAAO inhibition in human enzyme in vitro” value [1] read?
**A.** highly potent DAAO inhibition

**Q.** And the “DAAO inhibition in mouse enzyme in vitro” value [2]?
**A.** highly potent DAAO inhibition

**Q.** Which results are given for O=c1[nH]nc(CCc2ccc(C(F)(F)F)cc2)cc1O [TAK-831, 4-hydroxy-6-{2-[4-(trifluoromethyl)phenyl]ethyl}pyridazin-3(2H)-one]?
**A.** CL/F ([3]; C57BL/6 J, mouse, plasma, po, single p.o. 0.3-10 mg/kg, model estimate, read-out: CLp oral clearance (converted)): 85.7 mL/min/kg; Tmax ([3]; C57BL/6 J, mouse, plasma, po, single p.o., first sampling at 2 h): ≤ 2 h; dose dependency of plasma exposure ([3]; p.o. dose range 0.3 to 10 mg/kg): increased almost dose-proportionally; Vp apparent volume of distribution ([3]; single p.o. 0.3-10 mg/kg, model estimate): 35.7 L/kg; pKd [4]: 9.09; fold by which in vivo Kd is lower than in vitro IC50 ([4]; in vivo Kd vs in vitro IC50): about 8 fold; Kon association rate constant ([4]; mice cerebellum, against total plasma concentration, model estimate): 0.0372 mL/ng/h; BRmax maximum binding ratio ([4]; mice cerebellum, model estimate): 0.987; accumulation of PK or TO after once daily multiple doses (empirical, separate studies) ([4]; mice, once daily multiple doses, data not shown): no accumulation was observed; TAK-831 dosage at which maximum decline of tracer concentration was observed ([4]; mice, single p.o., tracer PGM019260 in cerebellum): ≥ 3 mg/kg; koff ([4]; mouse, read-out: Koff dissociation rate constant): 3.14e-05 s⁻¹; Kp ([5]; C57BL/6 J): 0.181; fraction unbound ([5]; C57BL/6 J): 0.425; time by which equilibrium across BBB was reached ([5]; C57BL/6 J): ≤ 0.25 h; Kp uu [5]: 1; fraction unbound [6]: 0.077; fraction unbound [7]: 0.0067; in vitro IC50 values on enzymatic activity, mice vs humans ([8]; comparison between mouse and human enzyme): comparable between mice and humans; IC50 ([8]; read-out: 50% inhibitory concentration (IC50) of DAAO activity in vitro (converted)): 6.33 nM; substrate of P-glycoprotein (P-gp) [9]: neither a substrate; substrate of breast cancer resistance protein (BCRP) [10]: neither a substrate; Ka absorption rate constant [11]: 0.218 h⁻¹; BRmax maximum binding ratio [12]: 0.987; Imax maximum inhibitory effect [13]: 0.877; D-serine levels in the cerebellum of normal mice [14]: increase D-serine levels; dose at which efficacy was observed ([15]; acute oral dose in mice): ≥ 0.3 mg/kg; identification of the novel object ([15]; range of acute and chronic doses in mice): able to identify the novel object; acquisition of the conditioned response [16]: improvement in the acquisition of the conditioned response; scopolamine induced deficit [16]: reversing the scopolamine induced deficit; efficacy in social interaction model [17]: efficacious

**Q.** Which “dose dependency of plasma exposure of radioactivity” value [5] does the source give for O=c1[nH]nc(CCc2ccc([14C](F)(F)F)cc2)cc1O [[^14C]TAK-831] here?
**A.** increased almost dose-proportionally

**Q.** For O=C([O-])c1ccccc1.[Na+] [sodium benzoate], which “displacement of PGM019260 in the mouse cerebellum” value [18] is on record?
**A.** dose dependent displacement
